Reference: publication PMC6925188, “PBRM1 acts as a p53 lysine-acetylation reader to suppress renal tumor growth” (Nature Communications, 2019)
Marks after values point to notes of the source that are not given here.

Tests used:
Format in all cases: cell-based
RCC4 cells = assay: RT-qPCR of p53 targets, RCC4 cells; parameters: CDKN1A expression / MDM2 expression / GADD45A expression / PUMA expression / NOXA expression: reference not given here; details: 24 h; for CDKN1A expression / GADD45A expression / MDM2 expression / NOXA expression / PUMA expression: 100 μM
Description: (§1) Lysates were analyzed by immunoblots. c RCC4 cells with or without p53 KO were transfected with vector or Flag-PBRM1 at the indicated amounts. […] Cells were harvested for RT-qPCR (g) or ChIP followed by qPCR (h). […] Representative data is shown in i. Quantification of cell cycle phase is shown in j. Source data are provided as a Source Data file.
Total RNA was extracted from cells using the RNeasy Plus Mini Kit (74136, Qiagen), and the concentration was measured using the NanoDrop ND-1000 system (Thermo Scientific). Reverse transcription was performed using the First Strand cDNA Synthesis Kit (NP100042, Origen) with 0.5 µg total RNA. Real-time PCR was performed with Maxima SYBR Green qPCR Master Mix (K0253, Thermo Scientific) using the Roche LightCycler 480. […] GAPDH was used as an internal control. Data are shown as mean ± SEM for three independent experiments.

[1] = tested on: ACHN, Caki-1 and Ren-01 cells; assay: Immunoblot of p53 targets, kidney cancer cells with PBRM1 shRNA knockdown; details: 50 μM etoposide, Caki-1 and Ren-01
Description: as §1
After washing with ice-cold PBS, cells were scraped on ice and centrifuged at 10,000 × g for 1 min at 4 °C. For immunoblot analysis, cell pellets were lysed in 1% SDS containing a protease inhibitor cocktail followed by sonication with a FB50 sonic dismembrator (Fisher Scientific) at 20% amplitude for 15 s twice. After centrifuging for 10 min at 14,000 × g, the supernatants were combined with 5X SDS loading buffer (5% mercaptoethanol, 0.05% Bromophenol blue, 30% glycerol, 10% SDS, 250 mM Tris-HCl (pH 6.8)), boiled for 5 min and used in SDS-PAGE. After standard western blot procedures, the blots were developed using the ImageQuant LAS 4000 (GE healthcare Life Sciences) or ChemiDoc MP Imaging System (Bio-rad) with HyGLO™ Chemiluminescent HRP Detection Reagent (E2500, Denville Scientific) or Immobilon™ Western Chemiluminescent HRP Substrate (WBKLS0500, Millipore). […]
the indicated times. Lysates were analyzed via immunoblots. b. […]
were analyzed by immunoblots. c. […]
Lysates were analyzed via immunoblots. e. […]
Lysates were analyzed via immunoblots. f, g, h. […]

endogenous PBRM1 and p53 = assay: Endogenous p53 immunoprecipitation, kidney cancer cell lines; details: ACHN, Caki-1 and Ren-01; 50 μM, 8 h
Description: For endogenous p53 immunoprecipitations, cell pellets were lysed in EBC buffer with protease and phosphatase inhibitors, 2 μM TSA and 10 mM NAM. Lysates (approximately 2 mg of total protein) were incubated with 2 μg p53 antibody (DO-1) overnight at 4 °C followed by incubation with protein A/G plus Sepharose (sc-2003, Santa Cruz Biotechnology) for 2 h. Beads were washed with EBC buffer four times, mixed with 1X SDS loading buffer (1% mercaptoethanol, 0.01% Bromophenol blue, 6% Glycerol, 2% SDS, 50 mM Tris-Cl (pH 6.8)) and analyzed by SDS-PAGE and immunoblot.
Supplementary Figure 1. Endogenous PBRM1 and p53 physically associate in kidney […]
μM) for 8 h and harvested for immunoprecipitation with control IgG and p53 antibodies. The bound PBRM1 and p53 were examined by immunoblots. Source data are provided as a Source […]
(1 picture or pasted object on this page, not shown here)

In the case of COc1cc([C@@H]2c3cc4c(cc3[C@@H](O[C@@H]3O[C@@H]5CO[C@@H](C)O[C@H]5[C@H](O)[C@H]3O)[C@H]3COC(=O)[C@H]23)OCO4)cc(OC)c1O [Etoposide], the “expression of p53 downstream targets with PBRM1 restoration” value (RCC4 cells; 100 μM etoposide, RCC4) is reported as “up-regulated by restoration of PBRM1 but not PBRM1 BD4*”, the CDKN1A expression (RCC4 cells; RCC4-GFP, assay 1) is reported as 49.6546 and the GADD45A expression (RCC4 cells; RCC4-GFP, assay 1) is reported as 6.5687. It also gave an MDM2 expression (RCC4 cells; RCC4-GFP, assay 1) of 12.9102, an NOXA expression (RCC4 cells; RCC4-GFP, assay 1) of 7.6934 and a PUMA expression (RCC4 cells; RCC4-GFP, assay 1) of 10.0905. It also gave a CDKN1A expression (RCC4 cells; RCC4-GFP, assay 2) of 44.3116, a GADD45A expression (RCC4 cells; RCC4-GFP, assay 2) of 5.0617 and an MDM2 expression (RCC4 cells; RCC4-GFP, assay 2) of 12.821. The NOXA expression (RCC4 cells; RCC4-GFP, assay 2) was 9.2403, the PUMA expression (RCC4 cells; RCC4-GFP, assay 2) was 12.0208 and the CDKN1A expression (RCC4 cells; RCC4-GFP, assay 3) was 55.0506. The GADD45A expression (RCC4 cells; RCC4-GFP, assay 3) was 5.7956, the MDM2 expression (RCC4 cells; RCC4-GFP, assay 3) was 12.4332 and the NOXA expression (RCC4 cells; RCC4-GFP, assay 3) was 9.8148. The PUMA expression (RCC4 cells; RCC4-GFP, assay 3) was 9.8829, the CDKN1A expression (RCC4 cells; RCC4-PBRM1-BD4*, assay 1) was 45.9041 and the GADD45A expression (RCC4 cells; RCC4-PBRM1-BD4*, assay 1) was 6.7644. The MDM2 expression (RCC4 cells; RCC4-PBRM1-BD4*, assay 1) was 11.4101, the NOXA expression (RCC4 cells; RCC4-PBRM1-BD4*, assay 1) was 9.833 and the PUMA expression (RCC4 cells; RCC4-PBRM1-BD4*, assay 1) was 10.713. The CDKN1A expression (RCC4 cells; RCC4-PBRM1-BD4*, assay 2) was 43.4526, the GADD45A expression (RCC4 cells; RCC4-PBRM1-BD4*, assay 2) was 6.5588 and the MDM2 expression (RCC4 cells; RCC4-PBRM1-BD4*, assay 2) was 13.589. It also gave an NOXA expression (RCC4 cells; RCC4-PBRM1-BD4*, assay 2) of 9.0815, a PUMA expression (RCC4 cells; RCC4-PBRM1-BD4*, assay 2) of 12.1902 and a CDKN1A expression (RCC4 cells; RCC4-PBRM1-BD4*, assay 3) of 51.1258. For the same compound, the GADD45A expression (RCC4 cells; RCC4-PBRM1-BD4*, assay 3) was 6.6252, the MDM2 expression (RCC4 cells; RCC4-PBRM1-BD4*, assay 3) was 12.0244 and the NOXA expression (RCC4 cells; RCC4-PBRM1-BD4*, assay 3) was 9.5044. The PUMA expression (RCC4 cells; RCC4-PBRM1-BD4*, assay 3) was 12.2164, the CDKN1A expression (RCC4 cells; RCC4-PBRM1, assay 1) was 70.754 and the GADD45A expression (RCC4 cells; RCC4-PBRM1, assay 1) was 7.8588. It also gave an MDM2 expression (RCC4 cells; RCC4-PBRM1, assay 1) of 16.2786, an NOXA expression (RCC4 cells; RCC4-PBRM1, assay 1) of 11.5749 and a PUMA expression (RCC4 cells; RCC4-PBRM1, assay 1) of 13.0108. The CDKN1A expression (RCC4 cells; RCC4-PBRM1, assay 2) was 72.9408, the GADD45A expression (RCC4 cells; RCC4-PBRM1, assay 2) was 6.8115 and the MDM2 expression (RCC4 cells; RCC4-PBRM1, assay 2) was 15.8174. The NOXA expression (RCC4 cells; RCC4-PBRM1, assay 2) was 11.4155, the PUMA expression (RCC4 cells; RCC4-PBRM1, assay 2) was 15.9071 and the CDKN1A expression (RCC4 cells; RCC4-PBRM1, assay 3) was 96.454. For the same compound, the GADD45A expression (RCC4 cells; RCC4-PBRM1, assay 3) was 7.8052, the MDM2 expression (RCC4 cells; RCC4-PBRM1, assay 3) was 16.0682 and the NOXA expression (RCC4 cells; RCC4-PBRM1, assay 3) was 13.296. The PUMA expression (RCC4 cells; RCC4-PBRM1, assay 3) was 14.8041, the “p21 induction by p53 with PBRM1 knockdown” value [1] was “significantly reduced p21 induction” and the “endogenous PBRM1 associated with endogenous p53” value (endogenous PBRM1 and p53) was “increased endogenous p53 associated with more endogenous PBRM1”.
